The text below walks through data of publication PMC10486604 (Cancers, 2023).

A short description of data set [1]: In vivo pharmacokinetics in 786-O tumor-bearing mice. The conditions noted are these: female, NMRI nu/nu, mouse, iv, 4 mg/kg. The procedure:
Plasma and tumor samples were collected and frozen at <−15 °C until sample analysis. Samples were analyzed for concentrations of respective SMDCs and the released payload 1 by LC/MS/MS. […] All pharmacokinetic parameters were calculated by non-compartmental methods.

Data set [2] relates to MA4296. In words: Orthotopic TNBC PDX model MA4296. The class given is in vivo, mouse. The conditions noted are these: orthotopic TNBC PDX models, both schedules. The procedure: Two orthotopic TNBC PDX mouse models were performed. Tumor cells were inoculated into the mammary fat pad of mice. Therefore, the mice were anesthetized shortly before surgery. After disinfection of the skin, mice received a small incision in the skin between the 4th and 5th dug. Each mouse was implanted with 2.5 × 10^6 (MA4296) or 5 × 10^6 (MA15191) cells. Treatment started on day 20 after inoculation, when palpable tumor sizes reached 127 mm^3 (day 33 for MA15191). […] Tumors were measured twice weekly with calipers, and their volume was calculated with the following formula: (length × width^2)/2. The body weight was also determined two times weekly. Reasons for termination were tumor size > 1.5 cm^3 or poor general condition. At the end of the study, tissue sampling for IHC and PCR analyses was performed. The statistical analysis was performed using mixed-effect analysis with Tukey’s multiple comparisons test (GraphPad Prism 8.4.2) to calculate significance in tumor growth inhibition between vehicle and treatment groups over time. The Kruskal–Wallis test was used to determine significance at study days 43 and 47. Additionally, the unpaired t-test was performed.

For data set [3], the target named is T1, human NE (Homo sapiens, UniProt P08246).
T1 sequence (P08246 30-267): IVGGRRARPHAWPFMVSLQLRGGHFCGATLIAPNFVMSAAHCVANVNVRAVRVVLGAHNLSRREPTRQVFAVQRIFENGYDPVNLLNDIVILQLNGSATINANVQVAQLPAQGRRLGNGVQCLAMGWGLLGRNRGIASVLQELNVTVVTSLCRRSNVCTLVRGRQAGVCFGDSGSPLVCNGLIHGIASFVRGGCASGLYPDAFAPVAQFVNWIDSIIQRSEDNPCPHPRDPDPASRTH
Briefly: Human NE biochemical cleavage assay. The conditions noted are these: read-out: Km (cleavage to payload 1). Here is the method:
Then, 125 μL of pre-heated buffer (100 mM Tris pH 7.5, 150 mM NaCl, 10 mM CaCl2, and 0.05% BSA) was added to each incubation. The reaction was started by adding 0.5 or 1 nM activated mouse elastase (according to manufacturer’s protocol) or human NE to the reaction vials. A negative control without elastase was run under the same conditions. The reaction was stopped at 0, 4.5, 8, and 12 min by the addition of acidified acetonitrile/0.2% formic acid. Camptothecin was used as internal standard for the LC/MS/MS analysis.

Data set [4] deals with LXFL529. Briefly: PDX model LXFL529 (NSCLC), subcutaneous. The class given is in vivo, mouse. Particulars: across PDX models. The procedure: Studies were conducted according to all applicable international, national, and local laws and followed the national guidelines for the Care and Use of Laboratory Animals of the Society of Laboratory Animal Science (GV-SOLAS). All animal experiment protocols were approved by the Regional Council Committee on the Ethics of Animal Experiments. Non-small-cell lung (LXFL529) and renal (RXF2667) PDX mouse models comprised six groups each with 10 animals. Tumor fragments (3–4 mm edge length) were transplanted, and tumor growth was monitored until a median size of about 120–150 mm^3 was achieved. […] Both experiments were terminated after a three-week recovery phase on day 63. Animals were monitored at least twice daily on working days and at least once daily on weekends (tumor size and body weight measurement). Colon (CXF2068) and triple-negative breast cancer (TNBC) (MAXF BR120) PDX mouse models were performed as described above with changes in schedule. […] The statistical significance of antitumor efficacy was analyzed by the non-parametric Kruskal–Wallis test, followed by Dunn’s method for multiple comparisons using GraphPad Prism bioanalytic software (version 9.10), with p < 0.05 as significant. Additionally, a nonpaired t-test was performed using GraphPad Prism (version 9.10).

For data set [5], the system named is NCI-H292. In words: In vitro proliferation (MTT) assay in presence and absence of NE, NCI-H292. It is filed as cell-based. The conditions noted are these: Homo sapiens, 72 h. Here is the method:
(§1) The in vitro cytotoxicity was evaluated in cancer cell lines NCI-H292 and LoVo after a 72-h continuous exposure to the presence or absence of 20 nM NE using MTT assays (ATCC, Manassas, VA, USA). IC50 values were determined as the concentration of compound required for 50% inhibition of cell viability.

The conditions of data set [6]: payload 1 dosed directly 1 mg/kg IV, 786-O tumor-bearing mice, cited from earlier work.
The subject of data set [7] is LoVo. Briefly: In vitro proliferation (MTT) assay in presence and absence of NE, LoVo. The class given is cell-based. The conditions noted are these: Homo sapiens, 72 h. The procedure: as §1

Molecules are shown by their SMILES. Where two headings read alike, the source gives them in different places.

In general, half-life refers to the time needed for the level to fall by half in the phase considered. Regarding `CCCNC(=O)Nc1cccc(S(=O)(=O)Nc2cccc([C@H](CC(=O)O)NC(=O)Nc3ccc(NC(=O)NCCOCCOCCOCCC(=O)N[C@@H](CC(=O)O)C(=O)N4CCC[C@H]4C(=O)N[C@H](C(=O)O[C@]4(CC)C(=O)OCc5c4cc4n(c5=O)Cc5c-4nc4ccccc4c5CC)C(C)C)cc3)c2)c1` [8e2], in data set [1], the half-life is 78 min.
By Km is commonly meant the substrate concentration at which the rate is half of its maximum. For `CCCNC(=O)Nc1cccc(S(=O)(=O)Nc2cccc([C@@H](CC(=O)O)NC(=O)Nc3ccc(NC(=O)NCCOCCOCCOCCC(=O)N[C@@H](CC(=O)O)C(=O)N4CCC[C@H]4C(=O)N[C@H](C(=O)O[C@]4(CC)C(=O)OCc5c4cc4n(c5=O)Cc5c-4nc4ccccc4c5CC)C(C)C)cc3)c2)c1` [VIP236], in data set [1], the half-life is 48.4 min. Further, the Tolerability result in data set [2] was “well tolerated”. The Km came out at 9.4 µM in data set [3] (enzyme concentration 0.5 nmol) and 9.6 µM in data set [3] (enzyme concentration 1.0 nmol). The “Tolerability (weight loss)” value in data set [4] is given as “well tolerated”.
The IC50 is the concentration that gives 50% inhibition. Consider `CCc1c2c(nc3ccccc13)-c1cc3c(c(=O)n1C2)COC(=O)[C@]3(O)CC` [compound 1, 7-ethyl camptothecin], for which the IC50 turned out to be 1.54 nM in data set [5] (absence of hNE, read-out: NCI H292 IC50); 1.35 nM in data set [5] (presence of 20 nM hNE, read-out: NCI H292 + hNE IC50); 1.9 nM in data set [7] (absence of hNE, read-out: LoVo IC50); 1.85 nM in data set [7] (presence of 20 nM hNE, read-out: LoVo + hNE IC50). For the same compound, the “AUCplasma of payload 1 (VIP126)” value in data set [6] is given as 301 µg·h/L. Moreover, the “AUCtumor of payload 1 (VIP126)” value in data set [6] is recorded as 185 µg·h/L. For the same compound, the “AUCtumor/AUCplasma of payload 1 (VIP126)” value in data set [6] was 0.61; in data set [6] (listed as Payload 1 (VIP126)), 0.616.
